This note sets out measurements from patent US9566347B2, “Peptides and methods using same” (The Trustees of the University of Pennsylvania, priority 2011, dated 2017).

Positions of bridges follow the written chain, without caps; N, C: chain ends. Residues, ends and D or L forms follow the SMILES beside them. No end group written: not given here.

One data set deals with hSIRP-alpha (Homo sapiens, UniProt P78324). In words: Soluble peptide inhibition of hSIRP-alpha binding to polypeptide beads. From the text:
(§1) Synthesis of the three designs and Scrambled-peptides with or without biotin attached via either an aminohexanoic acid linker (C6) or a PEG linker, enabled functional testing of binding to soluble hSIRP-alpha as well as inhibition of nanobead phagocytosis. […] The 10-aa FG-hairpin was synthesized without attachment of biotin for use as a soluble inhibitor of hSIRP-alpha binding to polypeptide beads. […] While conformational constraints the minimal FG-hairpin combined with the likely lack of a stable structure underscores the utility of at least some backbone flexibility.

Another data set has as its system spleen macrophages. The note with it: NSG mice, near-infrared particles.
Data set [1] is described as follows: Two-color persistence of opsonized nanobeads in circulation of NSG mice. It is filed as in vivo. The note with it: 160 nm opsonized streptavidin polystyrene beads.
Description: FIG. 3A illustrates a two color experiment in which nanoparticles (or cells) are mixed and injected into the same mouse after labeling with or without the peptide with distinct fluorescent red dye (PKH26) or far-red (DiD). 50 μl of blood was periodically sampled from the eyes, and flow cytometry analysis of the decay in nanoparticle (or cell) numbers was used to calculate the time-dependent ‘persistence ratio’ in each mouse. Colors were labeled as 1 and 2. FIG. 3B is a graph illustrating an experiment where 160 nm polystyrene beads coated with streptavidin were bound to biotinylated versions of synthetic FG-peptide, or else negative controls of either scrambled peptide or PEG. Beads were opsonized with anti-streptavidin and then injected. n=6 mice. […] Avg.±SEM for all results.
The next data set has as its target soluble hSIRP-alpha (Homo sapiens, UniProt P78324). As to the kind of experiment: Binding of polypeptide-coated beads to soluble hSIRP-alpha by flow cytometry.
Excerpt: FIG. 4 illustrates binding and phagocytosis inhibition of peptides in relation to human-SIRP-alpha. Affinity of polypeptides coated beads binding to soluble hSIRP-alpha based on flow cytometry. Saturation binding fit gave the indicated dissociation constant, Kd.
as §1
(In general: In flow cytometry, cells or beads pass a laser one at a time.)

In another data set the test system is THP-1 cells. In words: Phagocytosis assay of peptide-coated opsonized nanobeads in THP-1 cell line. It is filed as cell-based. The note with it: opsonized beads. The method, then:
FIG. 3A illustrates a two color experiment in which nanoparticles (or cells) are mixed and injected into the same mouse after labeling with or without the peptide with distinct fluorescent red dye (PKH26) or far-red (DiD). 50 μl of blood was periodically sampled from the eyes, and flow cytometry analysis of the decay in nanoparticle (or cell) numbers was used to calculate the time-dependent ‘persistence ratio’ in each mouse. Colors were labeled as 1 and 2. FIG. 3B is a graph illustrating an experiment where 160 nm polystyrene beads coated with streptavidin were bound to biotinylated versions of synthetic FG-peptide, or else negative controls of either scrambled peptide or PEG. Beads were opsonized with anti-streptavidin and then injected. n=6 mice. FIG. 3C is a graph illustrating the inverse correlation between the in vivo ratio of beads with or without peptide at 35 min and the inhibition of phagocytosis in vitro at 45 min for 160 nm beads. FIG. 3D is a graph illustrating macrophage SIRPa1 tyrosine phosphorylation upon contact with FG-peptide bound to opsonized beads and phagocytosed by THP-1 cells. From cell lysates, SIRP-alpha was immunoprecipitated and immunoblotted for quantitation of phosphotyrosine per total SIRP-alpha (n=3). Avg.±SEM for all results.
FIG. 4 illustrates binding and phagocytosis inhibition of peptides in relation to human-SIRP-alpha. […]

Chain of soluble hSIRP-alpha (P78324 31-373 limits assumed): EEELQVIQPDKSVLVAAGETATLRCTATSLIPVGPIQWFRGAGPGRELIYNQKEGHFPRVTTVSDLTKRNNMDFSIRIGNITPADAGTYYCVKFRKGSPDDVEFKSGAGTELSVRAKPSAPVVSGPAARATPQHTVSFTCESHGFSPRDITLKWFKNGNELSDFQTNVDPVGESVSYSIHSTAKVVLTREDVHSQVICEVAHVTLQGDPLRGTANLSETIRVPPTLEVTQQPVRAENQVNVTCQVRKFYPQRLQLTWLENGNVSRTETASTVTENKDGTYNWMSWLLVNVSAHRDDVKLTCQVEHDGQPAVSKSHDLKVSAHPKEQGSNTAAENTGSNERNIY
Chain of hSIRP-alpha (P78324 31-373 limits assumed): as above
Excerpt for spleen macrophages: To assess whether the particles had been taken up by spleen macrophages in NSG mice, tissue sections were immunostained for macrophages and imaged by fluorescence microscopy.

A word on the Ki: it is the equilibrium dissociation constant of an inhibitor or competing ligand from its target. Low readings indicate tighter binding, high ones weaker binding. The molecule `CC(C)C[C@H](NC(=O)[C@H](CCC(=O)O)NC(=O)[C@@H](NC(=O)[C@@H](NC(=O)[C@@H](N)CCC(=O)O)C(C)C)[C@@H](C)O)C(=O)N[C@H](C(=O)N[C@@H](CCCNC(=N)N)C(=O)N[C@@H](CCC(=O)O)C(=O)NCC(=O)N[C@@H](CCC(=O)O)C(=O)O)[C@@H](C)O` [FG-hairpin, EVTELTREGE] (H-EVTELTREGE-OH; N-terminus and C-terminus assumed) displayed an inhibitory constant (Ki) on hSIRP-alpha of 100 to 200 nM.
Usually Kd stands for a measure of binding affinity in units of concentration. Regarding GNYTCEVTELTREGETIIELK [FG-peptide], the “particle uptake, whole organ imaging” value in the data set with spleen macrophages was “reducing but not eliminating uptake”. For the same molecule, the circulation of nanoparticles result in data set [1] is “prolong the circulation of nanoparticles”. In addition, in the data set with soluble hSIRP-alpha (saturation binding fit, biotinylated peptide on streptavidin beads, C6 or PEG linker, read-out: affinity for SIRP-alpha (Kd)), the dissociation constant Kd was in the range of 110 to 160 nM.
Regarding “CEVTELTREGEC (disulfide 1-12 (inferred)) [FG-SS-peptide, 12-aa peptide with Cys substitution intended to disulfide-stabilize the β-hairpin]”, the “inhibition of nanobead phagocytosis” value in the data set on THP-1 cells is “no statistically significant inhibition of phagocytosis”. Also, in the data set with soluble hSIRP-alpha (peptide-coated beads, soluble hSIRP-alpha), the “affinity / binding to hSIRP-alpha (in words)” value is given as “no significant affinity”.
